Laboratory results reported in patent US11111242B2, “Pyrrolo[2,3-d]pyrimidinyl, pyrrolo[2,3-b]pyrazinyl and pyrrolo[2,3-d]pyridinyl acrylamides” (Pfizer Inc., priority 2013, dated 2021).
Where two headings read alike, the source gives them in different places.

Assays:
[1] = system: IL-15 induced P-STAT5 in human PBMC (total lymphocytes); assay: PBMC IL-15 Induced P-STAT5; format: cell-based; conditions: IL-15 stimulated, read-out: PBMC IL15-pSTAT5 IC50
Outline: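 Thawed human PBMC in RPMI, preincubated 30 min at 37 °C, then IL-15 stimulated. Cells methanol-permeabilized (90%, on ice 20 min) and stained for phospho-STAT5. Read by flow cytometry, gated on total lymphocytes.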

[2] = system: IL-15 induced STAT5 phosphorylation in Human Whole Blood (total lymphocytes); assay: HWB IL-15 Induced STAT5 Phosphorylation Assay; format: cell-based; conditions: Lymphocyte, IL-15 stimulated, read-out: HWB-IL15-pSTAT5 IC50
Experimental: HWB IL-15 Induced STAT5 Phosphorylation Assay
After mixing and incubating for 45 minutes at 37° C., 5 μl D-PBS (unstimulated control) or 20× stocks of 5 μl human IL-15 (final concentration is 50 ng/ml) were added, and mixed three times. After incubating 15 minutes at 37° C., 1× Lyse/Fix Buffer (BD Phosflow 5× Lyse/Fix Buffer) was added to all wells at 1000 μl/well, then incubated for 20 minutes at 37° C. and spun 5 mins at 1200 rpm. […] Following incubating at 4° C. over night, all the samples were transferred to 96-well polypropylene U-bottom plate, and checked by flow cytometry gated on total lymphocytes.

Row | IC50 [2] | Compound | IC50 [1] | IC50 ([1]; Homo sapiens, PBMC)
1 | 1180 nM | C=CC(=O)N1CCC[C@@H](Nc2ncnc3[nH]cc(CC)c23)C1 [Example 44, 1-{(3R)-3-[(5-ethyl-7H-pyrrolo[2,3-d]pyrimidin-4-yl)amino]piperidin-1-yl}prop-2-en-1-one] | 320 nM | –
2 | 1010 nM | C=CC(=O)N1CCC[C@@H](Nc2ncnc3[nH]cc(C#N)c23)C1 [Example 45, 4-{[(3R)-1-acryloylpiperidin-3-yl]amino}-7H-pyrrolo[2,3-d]pyrimidine-5-carbonitrile] | 348 nM | –
3 | 359 nM | C=CC(=O)N1CCC[C@@H](Nc2ncnc3[nH]cc(CCOC)c23)C1 [Example 46, 1-[(3R)-3-{[5-(2-methoxyethyl)-7H-pyrrolo[2,3-d]pyrimidin-4-yl]amino}piperidin-1-yl]prop-2-en-1-one] | – | 279 nM
4 | 366 nM | C=CC(=O)N1CC[C@@H](F)[C@@H](Nc2ncnc3[nH]ccc23)C1 [Example 54, 1-((3S,4R)-3-((7H-Pyrrolo[2,3-d]pyrimidin-4-yl)amino)-4-fluoropiperidin-1-yl)prop-2-en-1-one] | – | 222 nM
5 | 2610 nM | C=CC(=O)N1C[C@H](Nc2ncnc3[nH]ccc23)C[C@H](N(C)C)C1 [Example 57, 1-((3R,5S)-3-((7H-Pyrrolo[2,3-d]pyrimidin-4-yl)amino)-5-(dimethylamino)piperidin-1-yl)prop-2-en-1-one] | 1230 nM | –
6 | 7840 nM | C=CC(=O)N1C[C@@H](C#N)C[C@@H](Nc2ncnc3[nH]ccc23)C1 [Example 58, (3S,5R)-5-((7H-pyrrolo[2,3-d]pyrimidin-4-yl)amino)-1-acryloylpiperidine-3-carbonitrile] | 2790 nM | –
7 | 2780 nM | C=CC(=O)N1C[C@H](O)C[C@@H](Nc2ncnc3[nH]ccc23)C1 [Example 60, 1-((3R,5R)-3-((7H-Pyrrolo[2,3-d]pyrimidin-4-yl)amino)-5-hydroxypiperidin-1-yl)prop-2-en-1-one] | – | 2470 nM
8 | 522 nM | C=CC(=O)N1C[C@H](Nc2ncnc3[nH]cc(C#N)c23)CC[C@@H]1C [Example 163, 4-{[(3R,6S)-1-Acryloyl-6-methylpiperidin-3-yl]amino}-7H-pyrrolo[2,3-d]pyrimidine-5-carbonitrile] | – | 109 nM
9 | 380 nM | C=CC(=O)N1C[C@H](Nc2ccnc3[nH]cc(C#N)c23)CC[C@@H]1C [Example 165, 4-{[(3R,6S)-1-Acryloyl-6-methylpiperidin-3-yl]amino}-1H-pyrrolo[2,3-b]pyridine-3-carbonitrile] | – | 40.6 nM
10 | 136 nM | C=CC(=O)N1CCC(Nc2cnc3[nH]cc(C(=O)NC(C)C)c3n2)CC1 [Example 168, 2-[(1-acryloylpiperidin-4-yl)amino]-N-(propan-2-yl)-5H-pyrrolo[2,3-b]pyrazine-7-carboxamide] | – | 37.1 nM
11 | 2950 nM | C=CC(=O)N1CC[C@H](Nc2cnc3[nH]cc(C(=O)NC(C)C)c3n2)C1 [Example 171, 2-{[(3S)-1-acryloylpyrrolidin-3-yl]amino}-N-(propan-2-yl)-5H-pyrrolo[2,3-b]pyrazine-7-carboxamide] | 726 nM | –
12 | 623 nM | C=CC(=O)N1CCN(c2cnc3[nH]cc(C(=O)NC(C)C)c3n2)CC1 [Example 174, 2-(4-acryloylpiperazin-1-yl)-N-(propan-2-yl)-5H-pyrrolo[2,3-b]pyrazine-7-carboxamide] | 58.4 nM | –
13 | 804 nM | C=CC(=O)N1CCC[C@H]1CNc1cnc2[nH]cc(C(=O)NC(C)C)c2n1 [Example 177, 2-({[(2S)-1-acryloylpyrrolidin-2-yl]methyl}amino)-N-(propan-2-yl)-5H-pyrrolo[2,3-b]pyrazine-7-carboxamide] | – | 108 nM
14 | 246 nM | C=CC(=O)N1CC(Nc2cnc3[nH]cc(C(=O)NC(C)C)c3n2)C1 [Example 188, 2-[(1-acryloylazetidin-3-yl)amino]-N-(propan-2-yl)-5H-pyrrolo[2,3-b]pyrazine-7-carboxamide] | – | 155 nM
15 | 9580 nM | C=CC(=O)N1CC[C@@H](CNc2cnc3[nH]cc(C(=O)NC(C)C)c3n2)C1 [Example 191, 2-({[(3S)-1-acryloylpyrrolidin-3-yl]methyl}amino)-N-(propan-2-yl)-5H-pyrrolo[2,3-b]pyrazine-7-carboxamide] | 2650 nM | –
16 | 3290 nM | C=CC(=O)N1CC[C@@H](Nc2cnc3[nH]cc(C(=O)NC(C)C)c3n2)[C@H](O)C1 [Example 196, 2-{[(3R,4R)-1-acryloyl-3-hydroxypiperidin-4-yl]amino}-N-(propan-2-yl)-5H-pyrrolo[2,3-b]pyrazine-7-carboxamide] | 1490 nM | –

Row | IC50 [2] | Compound | IC50 [1] | IC50 ([1]; Homo sapiens, PBMC)
17 | 3480 nM | C=CC(=O)N1CCC(Nc2cnc3[nH]cc(-c4ccnc(C)c4)c3n2)CC1 [Example 201, 1-(4-{[7-(2-methylpyridin-4-yl)-5H-pyrrolo[2,3-b]pyrazin-2-yl]amino}piperidin-1-yl)prop-2-en-1-one] | 262 nM | –
18 | 3740 nM | C=CC(=O)N1CCC(Nc2cnc3[nH]cc(-c4cncnc4)c3n2)CC1 [Example 202, 1-(4-{[7-(pyrimidin-5-yl)-5H-pyrrolo[2,3-b]pyrazin-2-yl]amino}piperidin-1-yl)prop-2-en-1-one] | 670 nM | –
19 | 1880 nM | C=CC(=O)N1CCC(Nc2cnc3[nH]cc(-c4cccnc4)c3n2)CC1 [Example 205, 1-(4-{[7-(pyridin-3-yl)-5H-pyrrolo[2,3-b]pyrazin-2-yl]amino}piperidin-1-yl)prop-2-en-1-one] | 219 nM | –
20 | 2820 nM | C=CC(=O)N1CCC(Nc2cnc3[nH]cc(-c4ccc(F)nc4)c3n2)CC1 [Example 207, 1-(4-{[7-(6-fluoropyridin-3-yl)-5H-pyrrolo[2,3-b]pyrazin-2-yl]amino}piperidin-1-yl)prop-2-en-1-one] | 185 nM | –
21 | 6690 nM | C=CC(=O)N1CCC(Nc2cnc3[nH]cc(-c4ccccc4)c3n2)CC1 [Example 209, 1-{4-[(7-phenyl-5H-pyrrolo[2,3-b]pyrazin-2-yl)amino]piperidin-1-yl}prop-2-en-1-one] | 152 nM | –
22 | 2680 nM | C=CC(=O)N1CCC(Nc2cnc3[nH]cc(-c4cnc(OC)nc4)c3n2)CC1 [Example 210, 1-(4-{[7-(2-methoxypyrimidin-5-yl)-5H-pyrrolo[2,3-b]pyrazin-2-yl]amino}piperidin-1-yl)prop-2-en-1-one] | – | 462 nM
23 | 4330 nM | C=CC(=O)N1CCC(Nc2cnc3[nH]cc(-c4ccnc(F)c4)c3n2)CC1 [Example 211, 1-(4-{[7-(2-fluoropyridin-4-yl)-5H-pyrrolo[2,3-b]pyrazin-2-yl]amino}piperidin-1-yl)prop-2-en-1-one] | 206 nM | –
24 | 2080 nM | C=CC(=O)N1CCC(Nc2cnc3[nH]cc(-c4cncc(F)c4)c3n2)CC1 [Example 212, 1-(4-{[7-(5-fluoropyridin-3-yl)-5H-pyrrolo[2,3-b]pyrazin-2-yl]amino}piperidin-1-yl)prop-2-en-1-one] | 154 nM | –
25 | 532 nM | C=CC(=O)N1CCC(Nc2cnc3[nH]cc(C(=O)N[C@@H]4C[C@H]4C(F)(F)F)c3n2)CC1 [Example 233, 2-[(1-acryloylpiperidin-4-yl)amino]-N-[(1R,2R)-2-(trifluoromethyl)cyclopropyl]-5H-pyrrolo[2,3-b]pyrazine-7-carboxamide] | 213 nM | –
26 | 438 nM | C=CC(=O)N1CCC(Nc2cnc3[nH]cc(C(=O)NC4CCCC(F)(F)C4)c3n2)CC1 (centres unmarked) [Example 236, 2-[(1-acryloylpiperidin-4-yl)amino]-N-(3,3-difluorocyclohexyl)-5H-pyrrolo[2,3-b]pyrazine-7-carboxamide] | 142 nM | –
27 | 615 nM | C=CC(=O)N1CCC(Nc2cnc3[nH]cc(C(=O)NCC4CC(F)(F)C4)c3n2)CC1 [Example 238, 2-[(1-acryloylpiperidin-4-yl)amino]-N-[(3,3-difluorocyclobutyl)methyl]-5H-pyrrolo[2,3-b]pyrazine-7-carboxamide] | – | 181 nM
28 | 442 nM | C=CC(=O)N1CCC(Nc2cnc3[nH]cc(C(=O)NCCCC(F)(F)F)c3n2)CC1 [Example 240, 2-[(1-acryloylpiperidin-4-yl)amino]-N-(4,4,4-trifluorobutyl)-5H-pyrrolo[2,3-b]pyrazine-7-carboxamide] | 83.8 nM | –
29 | 657 nM | C=CC(=O)N1CCC(Nc2cnc3[nH]cc(C(=O)NC[C@H](C)CC(F)(F)F)c3n2)CC1 [Example 241, 2-[(1-acryloylpiperidin-4-yl)amino]-N-[(2R)-4,4,4-trifluoro-2-methylbutyl]-5H-pyrrolo[2,3-b]pyrazine-7-carboxamide] | – | 87.9 nM
30 | 617 nM | C=CC(=O)N1CCC(Nc2cnc3[nH]cc(C(=O)NC4CC(F)C4)c3n2)CC1 (centres unmarked) [Example 243, 2-[(1-acryloylpiperidin-4-yl)amino]-N-(3-fluorocyclobutyl)-5H-pyrrolo[2,3-b]pyrazine-7-carboxamide] | 155 nM | –
31 | 403 nM | C=CC(=O)N1CCC(Nc2cnc3[nH]cc(C(=O)N[C@H]4CC[C@@H](F)C4)c3n2)CC1 [Example 244, 2-[(1-acryloylpiperidin-4-yl)amino]-N-[(1S,3R)-3-fluorocyclopentyl]-5H-pyrrolo[2,3-b]pyrazine-7-carboxamide] | – | 127 nM
